Test results as given in PubChem BioAssay AID1508591.

Conditions: rat; liver microsomes; pH 7.4; 15.0 min; 1.0 µM

| Structure (SMILES) | half-life [min] |
| --- | --- |
| Fc1cc(Nc2nc(-c3ccncc3)nc3ccccc23)ccc1-c1cn[nH]c1 | 19 |
| O=C(Cc1cccc(OC(F)(F)F)c1)Nc1ccc(CCCCc2nnc(NC(=O)Cc3ccccn3)s2)nn1 | 20.9 |
| CCOC(=O)c1ccc(NC2CCCCC2)c(N)c1 | 2.5 |
| Cc1cccc(-c2noc([C@@H]3Cc4nc[nH]c4CN3)n2)c1 | > 30 |
| Fc1ccc(N2CCCN(CC3[C@H]4CNC[C@@H]34)CC2)cc1 (stereo partly specified) | > 30 |
| CNC(=O)C1CCN(C(=O)c2ccc(-c3ncc4cnc(-c5ccccc5)cn34)cc2)CC1 | > 30 |
| Cc1cc(F)ccc1S(=O)(=O)Nc1cnccc1C(=O)Nc1nc(-c2ccccc2)cs1 | 20 |
| Nc1ncccc1-c1nc2ccc(-c3ccccc3)nc2n1-c1ccc(C2(N)CCC2)cc1 | > 30 |
| CCN(CC)CCO[C@H]1CC[C@@]2(C)C(=CC[C@@H]3[C@@H]2CC[C@]2(C)C(=O)CC[C@@H]32)C1 | 5.67 |
| Cc1ccccc1-c1nc(NCc2ccc(-c3cccnc3)cc2)c2ccccc2n1 | 6.25 |
| N#Cc1cnc(NS(=O)(=O)c2ccc(NC(=O)Cc3ccc(F)c(Cl)c3)cc2)s1 | > 30 |
| COc1cc(Cl)cn2c(-c3cccc(NC4CNC4)n3)cnc12 | > 30 |
| NC(=O)NCC(=O)N[C@H]1CC[C@H](Nc2nccc(-c3ccncc3)n2)C1 | > 30 |
| CNC(=O)c1ccc(C)c(-n2c(C)cc(OCc3ccc(F)cc3F)c(Br)c2=O)c1 | > 30 |
| Cc1c(C(=O)NN2CCCCC2)nn(-c2ccc(Cl)cc2Cl)c1-c1ccc(Cl)cc1 | 5.9 |
| CN1C(=O)C(=O)N2C(=C[C@]3(c4c[nH]c5ccccc45)c4ccccc4N[C@H]23)C1=O | 4.83 |
| COc1cccc(NC(=S)N2CCN(c3cccc(C(F)(F)F)c3)CC2)n1 | 17.6 |
| c1coc(-c2nc3ccncc3[nH]2)c1 | > 30 |
| c1ccc2c(Nc3nccs3)nc(-c3ccncc3)nc2c1 | 6.4 |
| CCCCN(CC)CCNC(=O)c1cc2c(-c3ccc(Cl)cc3)nn(C)c2s1 | 3.76 |
| O=C1Nc2ccccc2/C1=C\c1ccc([N+](=O)[O-])cc1 | 4.92 |
| O=C(Nc1nc(-c2ccccc2)cs1)c1ccncc1NS(=O)(=O)c1ccc(F)cc1F | 6.5 |
| c1ccc2c(Nc3ccc4nc[nH]c4c3)nc(-c3ccncc3)nc2c1 | 16 |

| Structure (SMILES) | half-life [min] |
| --- | --- |
| O=S(=O)(Nc1nc2n(n1)C(c1ccccc1)C=C(c1ccc(Cl)cc1)N2)c1ccccc1 (stereo unspecified) | > 30 |
| CC(C)C(=O)N1CCc2ccc(OCc3nc(C(=O)N4CCCC4)co3)cc2C1c1cccc(F)c1 (stereo unspecified) | 2.43 |
| CN(C)C(=O)c1cc(-c2ccc(S(C)(=O)=O)cc2)c2cnn(C)c2n1 | > 30 |
| COc1cccc(CNc2ccc(S(=O)(=O)Nc3nc4ccccc4s3)cc2)c1O | > 30 |
| COc1cc(C(=O)NC2CCCc3c2[nH]c2ccccc32)cc(OC)c1OC (stereo unspecified) | 11.8 |
| COCCNCc1ccc(-c2cc3nccc(Oc4ccc(NC(=S)NC(=O)Cc5ccc(F)cc5)cc4F)c3s2)nc1 | 10.3 |
| COc1cccc(-c2cn3c(n2)sc2cc(C(=O)NCCc4ccc(OC)c(OC)c4)ccc23)c1 | 2.26 |
| Oc1c(C(Nc2nccs2)c2ccc(C(F)(F)F)cc2)ccc2cccnc12 (stereo unspecified) | 3.54 |
| Oc1ccc(CNc2cccnc2)c2cccnc12 | 3.56 |
| COc1ccc(NC2=C(c3ccc(C(F)(F)F)cc3)C(=O)c3ccccc32)cc1 | 7.57 |
| O=C(O)c1cccc(-c2noc(-c3ccccc3F)n2)c1 | > 30 |
| Cc1cc(SCc2sc(-c3ccc(C(F)(F)F)cc3)nc2C)ccc1OCC(=O)O | > 30 |
| C[C@@H]1[C@@H](CC(C[C@H]2O[C@@H]3O[C@]4(C)CC[C@@H]5[C@H](C)CC[C@@H]([C@H]2C)[C@@]35OO4)C(=O)NCc2ccc(F)cc2)O[C@@H]2O[C@]3(C)CC[C@H]4[C@H](C)CC[C@@H]1[C@@]24OO3 (stereo partly specified) | 2.4 |
| Cc1ccnc(NC(=S)N2CCN(c3ccc(C(F)(F)F)cc3)CC2)c1 | > 30 |
| CCN1CCCC1CNC(=O)c1cc(S(=O)(=O)CC)c(N)cc1OC (stereo unspecified) | > 30 |
| CC(C)c1ccccc1-c1ncc(F)c(NCc2ccc(-n3ccnn3)cc2)n1 | 4.4 |
| Cc1ccc(NC(=O)c2cc(S(=O)(=O)NCCC3=CCCCC3)ccc2F)cc1F | 2.07 |
| Cc1ccc(S(=O)(=O)Nc2cnccc2C(=O)Nc2nc(-c3ccc(Cl)cc3)cs2)cc1 | > 30 |
| O=C(NC1CCCc2c1cnn2-c1ccc(O)cc1)c1ccccn1 (stereo unspecified) | > 30 |
| CC(C)(C)c1ccc(-c2ccc(=O)n(CC(=O)NCCc3ccccc3)n2)cc1 | 1.6 |
| C#CCNC(=O)c1nc(-c2cccnc2)c2ccccn12 | 14.8 |
| OC(CCN1CCCCC1)c1ccc(-c2ccccc2)cc1 (stereo unspecified) | 4.73 |
| COc1ccccc1-c1nc(NCc2ccc(-c3cccnc3)cc2)c2ccccc2n1 | 4.45 |

| Structure (SMILES) | half-life [min] |
| --- | --- |
| CC(=O)Nc1ccc(CN2CCc3nc(C(C)C)nc(-c4ccc(Cl)cc4)c3CC2)cc1 | 4.1 |
| COc1ccc(CCNC(=O)Cn2c(=O)c3cccn3c3ccc(F)cc32)cc1OC | 1.81 |
| Cc1ccc(-c2cc(C(=O)NCc3cnn(C)c3)c3cc(Br)ccc3n2)cc1 | > 30 |
| NC(=O)C1CCN(c2ncc(-c3ccc(Br)cc3)s2)CC1 | 3.6 |
| CCOC(=O)c1ccc(-n2c(C)cc(-c3nnc4n3CCCCC4)c2C)cc1 | 2.7 |
| Cc1cnc(N2CCC(C(N)=O)CC2)nc1-c1cccc(N(C)C)c1 | 8.45 |
| Cc1nc([C@](C)(O)CO)sc1-c1cnc(N)c(O[C@H](C)c2cc(F)ccc2-n2nccn2)c1 | 22.6 |
| O=C(Cn1c2ncccc2c(=O)n1-c1ccccc1)Nc1ccc(Cl)cc1C(F)(F)F | 4.81 |
| O=C(NCCc1ccc(OCC(F)(F)F)c(OCC(F)(F)F)c1)c1cc2sccc2n1Cc1ccccc1 | 1.9 |
| O=C(c1nc(-c2ccc(Cl)nc2)c2ccccn12)N1CCCC1 | 8.91 |
| Fc1ccc(CNc2cc3c(cn2)CN(Cc2ccncc2)CCN3)cc1 | 15.9 |
| CN(Cc1cccs1)c1nc(-c2ccccc2C(F)(F)F)nc2ccccc12 | 1.98 |
| O=C(NCc1ccncc1)c1nc(-c2cccnc2)c2cnccn12 | > 30 |
| Cc1ccc(-n2nc3c(=O)n(CCCC(=O)NC(C)c4ccccc4)nc(C)c3c2C)cc1 (stereo unspecified) | 2.27 |
| Fc1cccc(Nc2nc(-c3ccncc3)nc3ccccc23)c1F | 11 |
| CC1=C(C(=O)Nc2ccccc2)C(c2ccc[nH]2)n2ncnc2N1 (stereo unspecified) | > 30 |
| Cc1ccc(-c2cc(C(=O)Nc3ccc(S(=O)(=O)N(C)Cc4nccs4)cc3)c3ccccc3n2)cc1C | 4.1 |
| O=C(CCc1ccccc1)NC(c1cccs1)c1cc(Cl)c2cccnc2c1O (stereo unspecified) | 2.14 |
| Cc1cn2nc(-c3nc(C4CCCN(C(=O)c5ccccc5)C4)no3)cc2c(=O)[nH]1 (stereo unspecified) | 13.6 |
| CCCCCCCc1c(C)nc(N2CCOCC2)[nH]c1=O | 3.5 |
| Cc1ccnc(NC(=S)N2CCN(c3ccc(C(F)(F)F)cc3[N+](=O)[O-])CC2)c1 | > 30 |
| Cn1cc(-c2nc(Nc3ccc(F)c(F)c3)c3ccccc3n2)cn1 | 21 |
| COC[C@@H]1CN(C(=O)c2n[nH]c3ccccc23)C[C@H]1c1nc(C)no1 | > 30 |

Next, values leading:

| half-life [min] | Structure (SMILES) |
| --- | --- |
| 9.9 | O=S(=O)(Nc1cccc2ccncc12)c1ccc(NCc2cccc(Cl)c2O)cc1 |
| 7.58 | CCc1nnc(NC(=O)c2nc(S(=O)(=O)Cc3ccc(C)cc3)ncc2Cl)s1 |
| 15.2 | Cc1cc(C)nc(NC(=S)N2CCN(c3ccc4nsnc4c3)CC2)c1 |
| 11 | Cc1ccccc1C(=O)N1CCc2cc(-c3nc(NC(=O)CC4CCCCC4)sc3C)ccc21 |
| 1.65 | COc1ccc2[nH]cc(CCNC(=O)c3cnn(-c4ccc(C)cc4)c3C3CCN(C(=O)OC(C)(C)C)CC3)c2c1 |
| > 30 | COc1ccc(OCCN2CCN(C(=O)c3ccc(OC)cc3)CC2)cc1 |
| 26.3 | COC(=O)C1=COC(C)C2CN3CCc4c([nH]c5cc(OC)c(OC)cc45)C3CC12 (stereo unspecified) |
| > 30 | O=C([C@@H]1CCCN(c2ccc3[nH]c(C4(n5cc(Cl)cn5)CC4)nc3n2)C1)N1CCCC1 |
| 16 | CCCCCn1c(=O)[nH]c2cc(C(=O)NCCCN3CCC(C)CC3)ccc2c1=O |
| > 30 | O=c1n(-c2ccc(Cl)cc2)nc2n1CCN(Cc1ccc(C(F)(F)F)cc1)C2 |
| 3.51 | CNc1nc2c(s1)C(c1ccccc1F)CC(=O)N2 (stereo unspecified) |
| > 30 | O=S(=O)(Nc1nccs1)c1ccc(NCc2cccc3cc[nH]c23)cc1 |
| 6.59 | COc1ccc(-c2noc([C@@H]3Cc4nc[nH]c4CN3C(=O)NC3CCCCC3)n2)cc1 |
| 7.47 | c1ccc(Nc2cc3c(cn2)CN(Cc2c[nH]c4ccccc24)CCN3)cc1 |
| > 30 | Cc1ccccc1C(=O)n1ccc2cc(-c3nc(NC(=O)Cc4ccc5c(c4)OCO5)sc3C)ccc21 |
| > 30 | COc1cc2c(Nc3ccc(Br)cc3F)ncnc2cc1OCC1CCN(C)CC1 |

| half-life [min] | Structure (SMILES) |
| --- | --- |
| 11 | CC1=C(C(=O)Nc2nnc(-c3ccccc3)s2)C(c2[nH]ncc2Cl)N=C(Nc2nc3ccccc3o2)N1 (stereo unspecified) |
| 1.8 | O=C(c1cnccn1)N1CCC2(CCCN(C(c3ccccc3)c3ccccc3)C2)CC1 |
| 6.9 | Cc1nn(CCc2nc(-c3ccc(OC(F)F)cc3)cs2)c2[nH]c(=O)cc(C(F)(F)F)c12 |
| 12 | COc1ccc(NS(=O)(=O)c2ccc(C)cc2)cc1C(=O)Nc1nc(-c2ccccc2)cs1 |
| 19.3 | NC(=O)C1CCN(c2nccc(-c3ccc(Br)cc3)n2)CC1 |
| 18.8 | CC(NCc1ccc2c(c1)nc(NC(=O)c1ccc(-c3cn[nH]c3)s1)n2CC(C)(C)O)C(C)(C)C (stereo unspecified) |
| 18.7 | CC(C)(C)C1CCc2[nH]c3ccccc3c(=O)c2C1 (stereo unspecified) |
| 3.01 | Oc1ccc(CN2CC(CNc3ccccc3)C3(C2)CN(c2ccccc2)C3)cc1 (stereo unspecified) |
| 29.7 | Nc1nc2c(s1)C(c1ccc(F)c(F)c1)CC(=O)N2 (stereo unspecified) |
| > 30 | COc1ccccc1C(=O)Nc1ccccc1C(=O)Nc1cccc(C(F)(F)F)c1 |
| 2.4 | Cc1ccc(S(=O)(=O)Nc2ccccc2C(=O)Nc2nc(-c3ccccc3)cs2)cc1 |
| 27 | Cc1ccc(S(=O)(=O)Nc2cnccc2C(=O)Nc2nc(-c3cccc(F)c3)cs2)cc1 |
| 3.74 | Cc1nc(NC2CCCCC2)c2nc(-c3ccccc3)n(CCN(C)C)c2n1 |
| 5.2 | COc1ccc(NC(=O)c2c(C)cccc2C)cc1S(=O)(=O)Nc1ccc(Br)cc1 |
| 1.77 | NC(=O)C1CCN(c2nc(-c3cccc(Br)c3)cs2)CC1 |
| > 30 | Nc1nccc2c1ncn2[C@@H]1C=C(CO)[C@@H](O)[C@H]1O |
